{
  "source": "patent US8575170B2",
  "about": "“Flurbiprofen analogs and methods of use in treating cancer” (The Regents of the Unversity of Colorado, a body corporate, priority 2010, dated 2013)",
  "key": {"lung cancer cell lines": {"test_system": "lung cancer cell lines", "test": "MTT cell viability, panel of lung cancer cell lines", "format": "cell-based", "excerpt": "(§1) The ability of the flurbiprofen analog compounds of the invention to inhibit cancer cell growth and survival (viability) in a variety of cancer lines was examined in a standard MTT assay for cell viability, as detailed in Example 2.\nIn one group of studies, the effect of compound B1031 (compound GCBH-110 above) on a variety of lung cancer cells lines identified in Tables 1A-1C was investigated FIGS. 1 and 2 are dose-response curves, showing the change in percent survival as a function of compound concentration, after four days incubation in the presence of the compound for the various cell lines tested (identified in Tables 1A-1C below). […] The 12 cell lines shown in Table 1A are all adenocarcinoma lines, a type of non-small cell lung carcinoma; the 11 cell lines shown in Table 1B, identified as adenosquamous, large cell, mesothelioma, squamous, and squaous mesothelioma, are non-small cell lung carcinoma lines; and the 7 cell lines shown in Table 1C are all small-cell lung carcinoma cell lines.\n(§2) Cell growth and survival following treatment with N—[(S)-2-Fluoro-α-methyl-4-biphenylacetyl]-[L-(4-phenylphenyl)alanine]-N-(2,2,6,6-tetramethyl-4-piperidinyl)amide (GCBH-110=B1031; (S)-Fmba-L-Bip-Atmp) were measured by a rapid colorimetric assay based on the tetrazolium salt MTT (3-(4,5-dimethylthiazol-2-yl)-2,5-diphenyl tetrazolium bromide) (Mosmann, J. Immunol. Methods 65: 55-63, 1983, with minor modifications).\n(§3) Briefly, approximately 1,000-5,000 cancer cells from 15 different cancer cells lines were plated in 100 μL of growth medium in 96-well flat-bottomed microtiter plates. Cells were incubated overnight to allow recovery. Compounds to be tested were added to the cells in triplicate in a range of concentrations and the cells were incubated at 37° C., 5% CO2, with 100% humidity. Control cells were treated in the same way without antagonists. […] Plates were incubated for 4 days, allowing sufficient time for cell replication and compound-induced cell death to occur. On day 5, 25 μL of a 2 mg/mL solution of MTT (Sigma) dissolved in RMPI-1640 was added to each well. The plate was incubated for 4 h at 37° C. The supernatant liquid was removed and the blue formazan complex was dissolved by adding 100 μL of 0.02 N HCl in 75% isopropanol to all wells. Absorbance was immediately determined using a scanning multiwell plate reader.\nSimilarly, cell growth and survival following treatment with GCBH-110=B1031 was tested using the same MTT assay in 17 lung cancer cell lines. GCBH-110=B1031 caused 50% cell death at concentrations between about 0.1 μM and about 2 μM under these conditions (FIG. 2)."}, "H1703": {"test_system": "H1703", "test": "MTT cell viability, H1703", "format": "cell-based", "settings": "Homo sapiens, NCI-H1703, 96 h; Adenosquamous lung cell line H1703; 4 days incubation", "experimental": "as §1\n(§4) The studies reported in Tables 1-3 above were carried out by incubating the cells in the test compound for four days, under standard cell-culture conditions, and measuring cell survival on day 5 (see Example 2).\nas §2\n(§5) Briefly, approximately 1,000-5,000 cancer cells from 15 different cancer cells lines were plated in 100 μL of growth medium in 96-well flat-bottomed microtiter plates. Cells were incubated overnight to allow recovery. Compounds to be tested were added to the cells in triplicate in a range of concentrations and the cells were incubated at 37° C., 5% CO2, with 100% humidity. Control cells were treated in the same way without antagonists. […] Absorbance was immediately determined using a scanning multiwell plate reader."}, "H661": {"test_system": "H661", "test": "MTT cell viability, H661", "format": "cell-based", "settings": "Homo sapiens, NCI-H661, 96 h; Large Cell lung cell line H661; 4 days incubation", "experimental": "as §1, §4, §2, §5"}, "[1]": {"test_system": "pancreatic cancer cell lines", "test": "MTT cell viability, panel of pancreatic cancer cell lines", "format": "cell-based", "excerpt": "as §1\n(§6) Similar results were obtained for the effect of the B1031 compound on the 14 pancreatic tumor cells lines shown in Table 3 below, where the dose dependent effect of the compound on survival of the pancreatic cancer cell lines is shown in FIG. 5.\nas §2\nas §5, with “humidity.” for “humidity. Control cells were treated in the same way without antagonists.”"}, "[2]": {"test": "Solubility of flurbiprofen analog compounds", "format": "physicochemical", "settings": "medium in which the compound is soluble, Table 5"}, "H520": {"test_system": "H520", "test": "MTT cell viability, H520", "format": "cell-based", "settings": "Homo sapiens, NCI-H520, 96 h; Squamous lung cell line H520; 4 days incubation", "experimental": "as §1, §4, §2, §5"}, "H1648": {"test_system": "H1648", "test": "MTT cell viability, H1648", "format": "cell-based", "settings": "Homo sapiens, NCI-H1648, 96 h; SCLC lung cell line H1648; 4 days incubation", "experimental": "as §1, §4, §2, §5"}, "UMSCC2": {"test_system": "UMSCC2", "test": "MTT cell viability, UMSCC2", "format": "cell-based", "settings": "UM-SCC2; Head and neck cancer cell line UMSCC2", "experimental": "as §1\n(§7) A similar study was conducted on 14 […] cancer cell lines, identified in Table 2.\nas §2\n(§8) Briefly, approximately 1,000-5,000 cancer cells from 15 different cancer cells lines were plated in 100 μL of growth medium in 96-well flat-bottomed microtiter plates. Cells were incubated overnight to allow recovery. Compounds to be tested were added to the cells in triplicate in a range of concentrations and the cells were incubated at 37° C., 5% CO2, with 100% humidity. Control cells were treated in the same way without antagonists. […] Plates were incubated for 4 days, allowing sufficient time for cell replication and compound-induced cell death to occur. […] Absorbance was immediately determined using a scanning multiwell plate reader. […]"}, "H865": {"test_system": "H865", "test": "MTT cell viability, H865", "format": "cell-based", "settings": "96 h; SCLC lung cell line H865; 4 days incubation", "experimental": "as §1, §4, §2, §5"}, "MSK922": {"test_system": "MSK922", "test": "MTT cell viability, MSK922", "format": "cell-based", "settings": "Head and neck cancer cell line MSK922", "experimental": "as §1, §7, §2, §8"}, "H2122": {"test_system": "H2122", "test": "MTT cell viability, H2122 lung carcinoma cell line", "format": "cell-based", "settings": "for pIC50: Homo sapiens", "experimental": "as §1\nThe IC50 values given in Tables 1-4 were measured using the B1031 ([…]) compound) shown in Section IIB above. To confirm the generality of the results with respect to other fluribprofen analogs prepared in accordance with the invention, IC50 values for the other 11 analog compounds given in Section IIB were similarly determined for the H2122 lung carcinoma cell line.\nas §4, §2, §3"}, "H226": {"test_system": "H226", "test": "MTT cell viability, H226", "format": "cell-based", "settings": "Homo sapiens, NCI-H226, 96 h; Squamous Mesothelioma lung cell line H226; 4 days incubation", "experimental": "as §1, §4, §2, §5"}, "Panc-504": {"test_system": "Panc-504", "test": "MTT cell viability, Panc-504", "format": "cell-based", "settings": "Pancreatic cancer cell, 96 h; Pancreatic cancer cells Panc-504; 4 days incubation", "excerpt": "as §1, §6, §4, §2\n(§9) Briefly, approximately 1,000-5,000 cancer cells from 15 different cancer cells lines were plated in 100 μL of growth medium in 96-well flat-bottomed microtiter plates. Cells were incubated overnight to allow recovery. […] Absorbance was immediately determined using a scanning multiwell plate reader."}, "CaLu3": {"test_system": "CaLu3", "test": "MTT cell viability, CaLu3", "format": "cell-based", "settings": "Homo sapiens, Calu-3, 96 h; Adenocarcinoma lung cell line CaLu3; 4 days incubation", "experimental": "as §1, §4, §2, §5"}, "UMSCC10A": {"test_system": "UMSCC10A", "test": "MTT cell viability, UMSCC10A", "format": "cell-based", "settings": "UMSCC-10A; Head and neck cancer cell line UMSCC10A", "experimental": "as §1, §7, §2, §8"}, "WM239a": {"test_system": "WM239a", "test": "MTT cell viability, WM239a", "format": "cell-based", "settings": "Melanoma cell line WM239a", "excerpt": "as §1\nThe results for the several cell lines above were also consistent with IC50 values measured for two melanoma cell lines shown in Table 4 below.\nas §2, §5"}, "Panc-203": {"test_system": "Panc-203", "test": "MTT cell viability, Panc-203", "format": "cell-based", "settings": "Homo sapiens, Panc203, 96 h; Pancreatic cancer cells Panc-203; 4 days incubation", "excerpt": "as §1, §6, §4, §2, §9"}},
  "note": "pIC50: −log10 of the molar value. Read-outs that look alike come from different tables or passages of the source.",
  "data": [
    {"smiles": "C[C@H](C(=O)N[C@@H](Cc1ccc(-c2ccccc2)cc1)C(=O)NC1CC(C)(C)NC(C)(C)C1)c1ccc(-c2ccccc2)c(F)c1", "note": "[GCBH-110, N—[(S)-2-Fluoro-α-methyl-4-biphenylacetyl]-[L-(4-phenylphenyl)alanine]-N-(2,2,6,6-tetramethyl-4-piperidinyl)amide]", "values": [
      {"measurement": "pIC50", "setting": "lung cancer cell lines; 17 lung cancer cell lines, FIG. 2, read-out: concentrations causing 50% cell death", "value": "5.70 to 7.00"},
      {"measurement": "pIC50", "setting": "lung cancer cell lines; 96 h, FIGS. 1 and 2, four days incubation, read-out: compound concentrations effective to produce 50% cell death", "value": "5.70 to 7.00"},
      {"measurement": "pIC50", "setting": "lung cancer cell lines; most of the lung cancer cell lines of Tables 1A-1C, read-out: IC50 value, most cell lines", "value": "> 6.30"},
      {"measurement": "pIC50", "setting": "lung cancer cell lines; span over the 32 lung cancer cell lines of Tables 1A-1C, read-out: IC50 values", "value": "5.74 to 7.00"},
      {"measurement": "IC50 fold lower than flurbiprofen (anti-cancer activity relative to flurbiprofen)", "setting": "lung cancer cell lines; variety of lung carcinoma cells, FIG. 9", "value": "about 1000 fold"},
      {"measurement": "pIC50", "setting": "H1703", "value": 6.44},
      {"measurement": "pIC50", "setting": "H661", "value": 6.46},
      {"measurement": "pIC50", "setting": "[1]; majority of the pancreatic cell lines, read-out: IC50, majority of the cell lines", "value": "≥ 6.15"},
      {"measurement": "pIC50", "setting": "[1]; span over 14 pancreatic tumor cell lines, Table 3, FIG. 5, read-out: IC50 values", "value": "5.51 to 6.80"},
      {"measurement": "Solubility", "setting": "[2]", "value": 50, "unit": "% DMSO"},
      {"measurement": "pIC50", "setting": "H520", "value": 6.60},
      {"measurement": "pIC50", "setting": "H1648", "value": 6.55},
      {"measurement": "pIC50", "setting": "UMSCC2", "value": 6.02},
      {"measurement": "pIC50", "setting": "H865", "value": 6.44},
      {"measurement": "pIC50", "setting": "MSK922", "value": 6.39},
      {"measurement": "activity in inhibiting H2122 cells relative to Aza-dC", "setting": "H2122; H2122 lung cancer cell line, versus DNA demethylase inhibitor Aza-dC", "value": "many-fold more active"},
      {"measurement": "activity in inhibiting H2122 cells relative to Syn275 (fold less active)", "setting": "H2122; H2122 lung cancer cell line, versus HDACi Syn275", "value": "about 4 fold"},
      {"measurement": "pIC50", "setting": "H2122; NCI-H2122, 96 h, Adenocarcinoma lung cell line H2122, 4 days incubation, read-out: IC50", "value": 6.82},
      {"measurement": "pIC50", "setting": "H2122; NCI-H2122, IC50 values for the H2122 lung carcinoma cell line, Table 5, read-out: H2122 In vitro", "value": 6.82},
      {"measurement": "pIC50", "setting": "H226", "value": 6.69},
      {"measurement": "pIC50", "setting": "Panc-504", "value": 6.80},
      {"measurement": "pIC50", "setting": "CaLu3", "value": 5.89},
      {"measurement": "pIC50", "setting": "UMSCC10A", "value": 6.70},
      {"measurement": "pIC50", "setting": "WM239a", "value": 6.64},
      {"measurement": "pIC50", "setting": "Panc-203", "value": 6.15}
    ]}
  ]
}
